Source: ChEMBL document CHEMBL1133269, “4-Alkylidenyl glutamic acids, potent and selective GluR5 agonists” (Bioorg Med Chem Lett, 2000)
Calls of active or inactive are those of the source. The calls are words filed in the database; no cut-off is given here.

Columns and labels:
[1] = target: T1, Glutamate receptor ionotropic, kainate 2 (Homo sapiens, UniProt Q13002); assay: biochemical
Description: Binding affinity of compound was determined against Ionotropic glutamate receptor ionotropic kainate 2 using cell membranes prepared from HEK293 cells

Glutamate receptor 2 = Glutamate receptor 2 (Homo sapiens, UniProt P42262); assay: Binding affinity of compound was determined against Ionotropic glutamate receptor AMPA 2 using cell membranes prepared from HEK293 cells
[2] = target: T2, Glutamate receptor ionotropic, kainate 5 (Homo sapiens, UniProt Q16478); assay: Binding affinity of compound was determined against Glutamate receptor (KA2) using cell membranes prepared from HEK293 cells
T2 sequence (Q16478 whole entry): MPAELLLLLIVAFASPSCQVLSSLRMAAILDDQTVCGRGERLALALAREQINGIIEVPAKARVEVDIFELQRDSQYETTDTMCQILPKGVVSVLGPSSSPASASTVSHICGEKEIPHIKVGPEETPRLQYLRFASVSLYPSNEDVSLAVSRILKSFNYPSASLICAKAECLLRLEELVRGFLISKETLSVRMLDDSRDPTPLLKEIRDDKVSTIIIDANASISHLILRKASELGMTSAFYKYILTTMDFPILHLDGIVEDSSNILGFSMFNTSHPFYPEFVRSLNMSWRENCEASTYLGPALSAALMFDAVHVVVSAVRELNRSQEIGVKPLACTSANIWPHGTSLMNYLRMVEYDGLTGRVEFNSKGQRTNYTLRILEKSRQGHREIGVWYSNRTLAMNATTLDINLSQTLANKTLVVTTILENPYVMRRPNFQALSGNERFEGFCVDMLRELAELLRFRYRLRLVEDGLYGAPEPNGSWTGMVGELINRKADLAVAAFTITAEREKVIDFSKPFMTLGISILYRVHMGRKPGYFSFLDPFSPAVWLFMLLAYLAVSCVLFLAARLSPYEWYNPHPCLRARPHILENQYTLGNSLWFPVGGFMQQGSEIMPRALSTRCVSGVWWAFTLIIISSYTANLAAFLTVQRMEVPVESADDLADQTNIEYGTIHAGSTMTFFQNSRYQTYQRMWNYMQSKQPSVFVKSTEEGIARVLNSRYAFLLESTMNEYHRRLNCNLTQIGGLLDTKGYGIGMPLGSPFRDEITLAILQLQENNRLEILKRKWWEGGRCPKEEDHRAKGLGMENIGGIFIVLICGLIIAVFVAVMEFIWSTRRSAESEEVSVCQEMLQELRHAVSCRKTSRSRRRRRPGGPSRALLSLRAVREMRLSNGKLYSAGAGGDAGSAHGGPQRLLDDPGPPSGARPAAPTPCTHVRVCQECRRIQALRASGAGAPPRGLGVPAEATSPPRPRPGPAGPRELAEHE

Glutamate receptor 4 = Glutamate receptor 4 (Homo sapiens, UniProt P48058); assay: biochemical
Description: Binding affinity of compound was determined against Ionotropic glutamate receptor AMPA 4 using cell membranes prepared from HEK293 cells

Glutamate receptor 1 = Glutamate receptor 1 (Homo sapiens, UniProt P42261); assay: biochemical
Description: Binding affinity of compound was determined against Ionotropic glutamate receptor AMPA 1 using cell membranes prepared from HEK293 cells

[3] = target: Glutamate receptor ionotropic, kainate 1 (Homo sapiens, UniProt P39086); assay: biochemical
Description: Binding affinity of compound was determined against Ionotropic glutamate receptor ionotropic kainate 1 using cell membranes prepared from HEK293 cells

[4] = Selectivity of compound was determined as the ratio of Ki of Glutamate receptor 6 to that of Glutamate receptor 5
[5] = target: T1, Glutamate receptor ionotropic, kainate 2; assay: Compound was tested for agonistic activity at Glutamate receptor 6 using HEK293 cells; format: functional, cell-based
[6] = target: T1, Glutamate receptor ionotropic, kainate 2; assay: Agonistic activity of compound on Glutamate receptor 6 using cell membranes prepared from HEK293 cells was expressed as percentage Rmax; ne means no effect; format: functional, cell-based
[7] = target: T2, Glutamate receptor ionotropic, kainate 5; assay: Binding affinity of compound was determined against KA2 using cell membranes prepared from HEK293 cells

T1 sequence (Q13002 whole entry): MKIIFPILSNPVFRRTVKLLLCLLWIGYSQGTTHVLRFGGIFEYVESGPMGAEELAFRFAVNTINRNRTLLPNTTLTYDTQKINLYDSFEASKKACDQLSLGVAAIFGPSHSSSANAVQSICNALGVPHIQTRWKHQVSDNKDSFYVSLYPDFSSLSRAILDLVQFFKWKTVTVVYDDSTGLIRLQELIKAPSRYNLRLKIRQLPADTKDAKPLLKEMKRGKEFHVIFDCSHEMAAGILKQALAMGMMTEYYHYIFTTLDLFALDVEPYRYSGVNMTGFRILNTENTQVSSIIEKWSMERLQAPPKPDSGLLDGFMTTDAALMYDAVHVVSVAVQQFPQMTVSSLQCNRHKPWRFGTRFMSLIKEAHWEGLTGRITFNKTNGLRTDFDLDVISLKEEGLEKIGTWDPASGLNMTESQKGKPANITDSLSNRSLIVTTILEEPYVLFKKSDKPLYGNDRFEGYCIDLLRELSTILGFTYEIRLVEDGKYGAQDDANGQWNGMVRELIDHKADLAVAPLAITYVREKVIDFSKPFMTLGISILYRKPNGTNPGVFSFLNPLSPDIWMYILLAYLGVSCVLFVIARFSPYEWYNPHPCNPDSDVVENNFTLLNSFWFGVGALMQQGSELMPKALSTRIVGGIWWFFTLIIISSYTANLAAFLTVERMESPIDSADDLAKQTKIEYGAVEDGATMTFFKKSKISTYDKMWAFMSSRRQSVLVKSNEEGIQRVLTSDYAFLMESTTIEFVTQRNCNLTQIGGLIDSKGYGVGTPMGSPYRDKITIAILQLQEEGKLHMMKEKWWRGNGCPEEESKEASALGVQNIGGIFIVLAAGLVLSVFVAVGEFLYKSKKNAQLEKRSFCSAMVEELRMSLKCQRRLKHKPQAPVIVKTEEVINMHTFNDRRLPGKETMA
Sequence of Glutamate receptor 1 (P42261 whole entry): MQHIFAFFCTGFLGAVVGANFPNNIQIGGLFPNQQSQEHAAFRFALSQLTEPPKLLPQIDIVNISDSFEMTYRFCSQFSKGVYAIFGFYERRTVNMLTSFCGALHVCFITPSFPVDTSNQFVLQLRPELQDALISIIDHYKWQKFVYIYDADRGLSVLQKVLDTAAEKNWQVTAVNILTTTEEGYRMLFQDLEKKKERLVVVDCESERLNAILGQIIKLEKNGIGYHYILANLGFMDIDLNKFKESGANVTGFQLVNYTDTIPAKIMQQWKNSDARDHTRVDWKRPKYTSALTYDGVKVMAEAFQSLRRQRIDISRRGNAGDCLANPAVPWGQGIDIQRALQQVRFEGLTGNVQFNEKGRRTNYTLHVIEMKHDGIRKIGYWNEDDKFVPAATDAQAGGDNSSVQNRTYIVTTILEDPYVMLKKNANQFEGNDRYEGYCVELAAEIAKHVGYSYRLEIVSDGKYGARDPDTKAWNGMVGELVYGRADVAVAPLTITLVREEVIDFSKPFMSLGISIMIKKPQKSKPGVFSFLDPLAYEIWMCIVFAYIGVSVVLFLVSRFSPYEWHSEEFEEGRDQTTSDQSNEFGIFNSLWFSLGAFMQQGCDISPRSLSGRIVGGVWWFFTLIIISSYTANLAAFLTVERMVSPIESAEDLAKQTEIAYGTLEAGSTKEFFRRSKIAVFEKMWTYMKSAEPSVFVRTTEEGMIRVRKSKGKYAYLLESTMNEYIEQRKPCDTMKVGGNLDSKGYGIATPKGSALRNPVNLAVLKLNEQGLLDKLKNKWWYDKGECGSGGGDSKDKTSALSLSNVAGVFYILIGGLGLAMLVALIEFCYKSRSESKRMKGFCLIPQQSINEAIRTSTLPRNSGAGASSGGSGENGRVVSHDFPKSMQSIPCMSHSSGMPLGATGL
Sequence of Glutamate receptor 2 (P42262 whole entry): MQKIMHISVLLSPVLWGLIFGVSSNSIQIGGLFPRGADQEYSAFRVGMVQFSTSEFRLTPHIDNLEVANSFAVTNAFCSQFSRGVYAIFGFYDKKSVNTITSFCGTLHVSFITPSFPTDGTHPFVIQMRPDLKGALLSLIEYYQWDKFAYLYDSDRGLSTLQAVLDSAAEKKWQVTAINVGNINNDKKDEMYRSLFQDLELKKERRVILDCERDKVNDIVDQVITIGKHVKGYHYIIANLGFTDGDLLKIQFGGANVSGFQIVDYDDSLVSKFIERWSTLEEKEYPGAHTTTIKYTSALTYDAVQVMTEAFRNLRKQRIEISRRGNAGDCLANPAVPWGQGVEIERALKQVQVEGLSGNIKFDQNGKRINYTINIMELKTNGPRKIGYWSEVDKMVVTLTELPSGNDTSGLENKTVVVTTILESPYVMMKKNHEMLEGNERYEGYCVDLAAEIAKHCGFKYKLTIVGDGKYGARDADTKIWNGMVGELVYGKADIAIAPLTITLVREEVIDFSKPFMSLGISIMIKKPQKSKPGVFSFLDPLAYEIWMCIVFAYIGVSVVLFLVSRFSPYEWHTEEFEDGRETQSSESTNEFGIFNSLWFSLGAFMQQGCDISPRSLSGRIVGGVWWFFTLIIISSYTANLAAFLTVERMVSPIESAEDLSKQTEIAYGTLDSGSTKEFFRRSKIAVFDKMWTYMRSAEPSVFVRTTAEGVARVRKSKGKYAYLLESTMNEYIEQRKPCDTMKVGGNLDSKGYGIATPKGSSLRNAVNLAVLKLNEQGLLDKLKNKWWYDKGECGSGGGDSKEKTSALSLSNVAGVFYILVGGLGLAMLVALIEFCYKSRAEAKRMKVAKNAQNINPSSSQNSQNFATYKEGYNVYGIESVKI
Sequence of Glutamate receptor ionotropic, kainate 1 (P39086 whole entry): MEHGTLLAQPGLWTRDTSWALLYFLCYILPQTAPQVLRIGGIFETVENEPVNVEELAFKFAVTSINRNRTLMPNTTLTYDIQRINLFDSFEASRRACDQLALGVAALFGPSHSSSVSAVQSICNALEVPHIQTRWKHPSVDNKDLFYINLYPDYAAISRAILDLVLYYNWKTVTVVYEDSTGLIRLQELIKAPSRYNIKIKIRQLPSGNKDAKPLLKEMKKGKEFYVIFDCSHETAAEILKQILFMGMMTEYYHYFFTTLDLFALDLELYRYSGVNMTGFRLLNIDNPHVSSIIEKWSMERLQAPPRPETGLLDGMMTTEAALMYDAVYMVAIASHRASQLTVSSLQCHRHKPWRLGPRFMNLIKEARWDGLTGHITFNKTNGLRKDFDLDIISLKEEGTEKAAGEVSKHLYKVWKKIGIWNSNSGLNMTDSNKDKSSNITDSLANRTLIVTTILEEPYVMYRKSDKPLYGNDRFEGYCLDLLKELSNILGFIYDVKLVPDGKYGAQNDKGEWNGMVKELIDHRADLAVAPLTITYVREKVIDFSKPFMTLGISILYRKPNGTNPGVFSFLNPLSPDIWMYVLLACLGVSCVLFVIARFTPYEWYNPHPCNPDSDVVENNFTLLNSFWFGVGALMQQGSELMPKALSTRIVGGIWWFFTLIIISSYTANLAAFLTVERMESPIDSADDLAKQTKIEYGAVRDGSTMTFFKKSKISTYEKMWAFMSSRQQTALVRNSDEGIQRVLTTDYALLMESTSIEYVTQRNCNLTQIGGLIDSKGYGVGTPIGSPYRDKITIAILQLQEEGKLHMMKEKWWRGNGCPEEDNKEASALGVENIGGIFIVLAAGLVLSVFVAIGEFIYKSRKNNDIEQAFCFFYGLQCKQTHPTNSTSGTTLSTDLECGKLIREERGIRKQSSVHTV
Sequence of Glutamate receptor 4 (P48058 whole entry): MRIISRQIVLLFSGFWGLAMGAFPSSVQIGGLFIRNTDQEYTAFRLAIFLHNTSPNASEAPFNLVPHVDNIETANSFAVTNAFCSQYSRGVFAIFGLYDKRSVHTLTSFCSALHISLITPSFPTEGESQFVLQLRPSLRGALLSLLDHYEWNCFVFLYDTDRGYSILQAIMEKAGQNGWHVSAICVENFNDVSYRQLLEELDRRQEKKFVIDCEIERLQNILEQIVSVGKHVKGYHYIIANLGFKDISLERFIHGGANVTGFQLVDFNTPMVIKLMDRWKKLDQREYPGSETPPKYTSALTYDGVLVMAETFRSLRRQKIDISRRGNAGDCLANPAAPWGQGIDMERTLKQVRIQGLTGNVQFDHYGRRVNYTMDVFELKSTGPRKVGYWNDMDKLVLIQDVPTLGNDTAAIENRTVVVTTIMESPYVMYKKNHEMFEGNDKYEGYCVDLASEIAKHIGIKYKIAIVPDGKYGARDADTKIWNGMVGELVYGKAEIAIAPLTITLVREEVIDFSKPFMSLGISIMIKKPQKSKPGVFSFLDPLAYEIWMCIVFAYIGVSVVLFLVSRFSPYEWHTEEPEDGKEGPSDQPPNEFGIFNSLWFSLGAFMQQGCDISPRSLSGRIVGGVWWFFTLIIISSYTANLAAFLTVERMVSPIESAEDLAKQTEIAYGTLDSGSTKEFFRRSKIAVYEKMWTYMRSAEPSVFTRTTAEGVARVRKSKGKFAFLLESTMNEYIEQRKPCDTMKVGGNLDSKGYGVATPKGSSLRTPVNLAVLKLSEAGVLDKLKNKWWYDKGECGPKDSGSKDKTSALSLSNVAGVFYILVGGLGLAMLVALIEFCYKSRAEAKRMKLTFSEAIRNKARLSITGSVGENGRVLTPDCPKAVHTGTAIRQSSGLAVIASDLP

Compound | Ki [1] [µM] | Ki [3] [µM] | Ratio [4] | further results
N[C@@H](C/C(=C\c1ccc(Cl)cc1)C(=O)O)C(=O)O | 193 | – | – | –
C=C(C[C@H](N)C(=O)O)C(=O)O | 0.45 | – | – | –
CCC(CC)=C(C[C@H](N)C(=O)O)C(=O)O | 207 | – | – | Ki (Glutamate receptor 2): 281 µM; Ki [2]: 21.4 µM; Ki (Glutamate receptor 4): 4.71 µM; Ki (Glutamate receptor 1): > 100 µM
CC(C)C/C=C(\C[C@H](N)C(=O)O)C(=O)O | 634 | – | – | –
CC(C)=C(C[C@H](N)C(=O)O)C(=O)O | > 400 | 13.9 | > 28.8 | –
CC1(C)CCC/C1=C(\C[C@H](N)C(=O)O)C(=O)O | 46.3 | 3.62 | 12.8 | –
N[C@@H](C/C(=C/CCC(c1ccccc1)c1ccccc1)C(=O)O)C(=O)O | > 10 | > 1 | 10 | –
N[C@@H](C/C(=C\C1CCCC1)C(=O)O)C(=O)O | 87.6 | – | – | –
CC1(C)CCC/C1=C(/C[C@H](N)C(=O)O)C(=O)O | > 100 | 0.236 | > 424 | –
CC(C)(C)/C=C(\C[C@H](N)C(=O)O)C(=O)O | > 100 | – | – | –
N[C@@H](CC(C(=O)O)=C1CCC1)C(=O)O | > 100 | – | – | –
CC(C)/C=C(/C[C@H](N)C(=O)O)C(=O)O | > 500 | – | – | Ki (Glutamate receptor 2): 44.9 µM; Ki [2]: 82.2 µM; Ki (Glutamate receptor 4): 10.3 µM; Ki (Glutamate receptor 1): 113 µM
N[C@@H](C/C(=C\C1CCCCC1)C(=O)O)C(=O)O | > 100 | 6.06 | > 16.5 | –
CCCC/C=C(/C[C@H](N)C(=O)O)C(=O)O | 125 | – | – | –
CCC/C=C(/C[C@H](N)C(=O)O)C(=O)O | 57.2 | – | – | –
N[C@@H](C/C(=C\CCC(c1ccccc1)c1ccccc1)C(=O)O)C(=O)O | > 100 | > 1 | 100 | –
N[C@@H](CC(C(=O)O)=C1CCCCC1)C(=O)O | 255 | 5.13 | 49.7 | –
N[C@@H](C[C@@H](C/C=C/c1ccc2ccccc2c1)C(=O)O)C(=O)O | – | – | – | Ki (Glutamate receptor 2): > 10 µM; Ki (Glutamate receptor 1): > 10 µM
CC/C=C(/C[C@H](N)C(=O)O)C(=O)O | 18 | – | – | EC50 [5]: > 300 µM
C/C=C(/C[C@H](N)C(=O)O)C(=O)O | 2.5 | 2.2 | 1.14 | –
N[C@@H](C/C(=C\C=C\c1ccccc1)C(=O)O)C(=O)O | > 100 | – | – | –
C=C(C)[C@H]1CN[C@H](C(=O)O)[C@H]1CC(=O)O [KAINIC ACID] | – | – | – | Ki [2]: 0.08 µM
N[C@@H](C/C(=C\CCc1ccccc1)C(=O)O)C(=O)O | 205 | – | – | –
C/C=C/C=C(/C[C@H](N)C(=O)O)C(=O)O | 16.3 | – | – | –
N[C@@H](CC(C(=O)O)=C1CCCC1)C(=O)O | > 100 | – | – | Ki (Glutamate receptor 2): 3.68 µM; Ki [2]: 10 µM; Ki (Glutamate receptor 4): 0.533 µM; EC50 [5]: > 100 µM; Rmax [6]: inactive; Ki (Glutamate receptor 1): 1.1 µM
CC(C)/C=C(\C[C@H](N)C(=O)O)C(=O)O | 82.5 | – | – | Ki (Glutamate receptor 2): 3.7 µM; Ki (Glutamate receptor 4): 5.6 µM; Ki (Glutamate receptor 1): 0.7 µM; Ki [7]: 7.5 µM
